Laboratory results from patent publication US20140134139A1, “CD34+ CELLS AND METHODS OF USE” (NORTHWESTERN UNIVERSITY, priority 2012, published 2014).

Key:
[1] = tested on: Lineage-Sca-1+CD31+ EPCs; experiment: Real-time PCR gene expression in drug-treated sorted mouse EPCs; assay type: cell-based
Procedure: Relative mRNA expression of target genes was normalized to the endogenous 18S control gene.
Lineage-Sca-1+CD31+ EPCs were cultured on 5 μg/mL human fibronectin coated plates in DMEM supplemented with 10% FBS and penicillin/streptomycin at 37° C. with 5% CO2. Human CD34+ cells were cultured in X-VIVO (Lonza) media supplemented with 0.5% human serum albumin, 50 ng/mL Flt3 ligand, 20 ng/mL stem cell factor, 50 ng/mL VEGF, and 10 ng/mL thrombopoietin. Either cell type was treated with VPA (2.5 mM) for 24 hours then 500 nM 5′ Aza was added to the culture media and cells remained in culture for an additional 24 hours (48 hours total). Different ranges of doses were tested with above doses being determined as the optimal doses not only for reprogramming but also for displaying minimal cellular toxicity. Further, a staggered treatment protocol, that is, contacting an EPC culture with a first epigenetic programming agent (for example, VPA) for a first period of time (for example, 24 hr), followed by contacting the EPC culture with a second epigenetic programming agent (for example, 5′-Aza) for a second period of time (for example, 24 hr) was determined to be a highly preferred protocol for reprogramming. Mouse EPCs were also cultured with 1 μM BIX-01294 for 48 hours in the same culture conditions. […]

[2] = tested on: Lineage-Sca-1+CD31+ EPCs; experiment: Cell viability analysis of drug-treated mouse EPCs; assay type: cell-based; settings: 500 nM 5′ Aza, 1 mM VPA, 1 mM BIX-01294; 48 hours; data not shown
Procedure: In an attempt to increase their plasticity, 2.0×10^5 sorted EPCs were seeded on fibronectin coated plates then treated for 48 hours with individual or combinations of epigenetic modifying agents; 500 nM 5′-Azacytidine (5′ Aza; DNA methyltransferase inhibitor), 1 mM valproic acid (VPA; histone deacetylase inhibitor), […] (histone methyltransferase inhibitor). Drug dosages were verified as non-toxic by cell viability analysis (data not shown). […] All mRNA expression was normalized to 18S RNA then presented as a fold difference compared to untreated EPCs. […] Since the treated cells express cardiomyocyte genes at basal level they may be more inclined to differentiate into mature CMCs under conditions conducive for CMC differentiation. Similar changes in gene expression were found in human CD34+ cells with the regimen of 2.5 mM VPA followed by 500 nM 5′ Aza (FIG. 2A). BIX-01294 treatment, even at reduced doses, was toxic to human CD34+ cells and was therefore not used in human cell studies.

[3] = tested on: human CD34+ cells; experiment: Toxicity to human CD34+ cells; assay type: cell-based; settings: similar drug doses as for mouse EPCs and even 2-fold reduced levels
Procedure: In an attempt to increase their plasticity, 2.0×10^5 sorted EPCs were seeded on fibronectin coated plates then treated for 48 hours with individual or combinations of epigenetic modifying agents; 500 nM 5′-Azacytidine (5′ Aza; DNA methyltransferase inhibitor), 1 mM valproic acid (VPA; histone deacetylase inhibitor), 1 mM BIX-01294 (histone methyltransferase inhibitor). Drug dosages were verified as non-toxic by cell viability analysis (data not shown). […] All mRNA expression was normalized to 18S RNA then presented as a fold difference compared to untreated EPCs. […]
The epigenetic reprogramming by these small molecules was evaluated in human CD34+ cells to determine whether their reprogramming potential is limited to mouse EPCs or whether it can also be translated to human EPCs (bone marrow mobilized CD34+ cells), currently used in clinical trials (Losordo D W et al., Circ. Res. 109:428-436 (2011)). CD34+ cells, obtained from healthy donors and provided by Baxter healthcare, were treated or not with VPA (2.5 mM) and 5′ Aza (500 nM) and mRNA expression of pluripotency and cardiomyocyte-specific transcripts was determined. […] In order to determine enhanced functional capacity of reprogrammed CD34+ cells in the repair of post-infarct myocardium, a previously determined sub-therapeutic dose of 2.5×10^4 cells was used for post-AMI transplantation in immune-e-deficient mouse AMI model. […]

[4] = tested on: murine endothelial cells (SVEC); experiment: Western blot of histone acetylation and methylation in SVEC cells; assay type: cell-based, mouse; settings: 1 μM BIX-01294, compared to untreated control cells
Procedure: Cell lysate from 1.5×10^7 SVEC cells was prepared using whole cell lysate buffer (50 mM Tris-HCl, 0.5% Igepal (NP-40), 150 nM NaCl). […] Equal protein loading in each lane was verified using antibodies against β-actin and changes in modified histone levels were quantified by first normalization to total H3 or H4 protein.
Therefore, murine endothelial cells (SVEC) were treated with either 1 μM BIX-01294 or staggered addition of 1 mM VPA then 500 nM 5′-Azacytidine for 48 h and histone acetylation and methylation were assessed by western blot.

[5] = tested on: SVEC cells; experiment: ChIP assay of acetylated H3K9 at Oct4 and cardiomyocyte gene promoters in SVEC cells; assay type: cell-based, mouse; settings: p<0.05
[6] = tested on: Nkx2.5 promoter; experiment: Pyrosequencing methylation analysis of the Nkx2.5 promoter in SVECs; assay type: cell-based, mouse; settings: treated vs control SVEC cells

## COc1cc2nc(N3CCCN(C)CC3)nc(NC3CCN(Cc4ccccc4)CC3)c2cc1OC [BIX-01294]
[1]; real-time PCR immediately after treatment, without cardiomyocyte differentiation conditions
  induction of cardiomyocyte-specific transcripts: de novo induction of cardiomyocyte-specific transcripts
[1]; real-time PCR, normalized to 18S RNA, 48 hours with 1 mM BIX-01294, or 24 hours 1 mM VPA then 24 hours 500 nM 5′ Aza
  Oct4 expression, fold difference compared to untreated EPCs: 9.5±2.0 fold
[2]
  toxicity of drug dosages by cell viability analysis: non-toxic
[3]
  toxicity to human CD34+ cells: toxic
[4]
  reduction of H3K9 di-methylation: 64.3±11%
[5]; compared to non-treated cells
  acetylated H3K9 bound to cardiac-specific gene promoters (Actn2, Ryr2, TnnT2): more heavily bound by acetylated H3K9
[5]; compared to untreated controls
  acetylated H3K9 bound to the core (CP) and regulatory promoter (RP) regions of Oct4: significant increase
[6]
  CpG methylation patterns of Nkx2.5: no significant difference

## CCCC(CCC)C(=O)O [VPA, valproic acid]
[2]
  toxicity of drug dosages by cell viability analysis: non-toxic
